What was measured:
[1] = target: Fibroblast growth factor receptor 1 (Homo sapiens, UniProt P11362); experiment: Inhibition of human recombinant FGFR1
[2] = target: Vascular endothelial growth factor receptor 2 (Homo sapiens, UniProt P35968)
[3] = target: Platelet-derived growth factor receptor beta (Homo sapiens, UniProt P09619); experiment: Inhibition of human recombinant PDGFRbeta
[4] = Inhibition of VEGF-mediated proliferation of HMVEC after 72 hrs; assay type: functional, cell-based; settings: Homo sapiens

Chain of Fibroblast growth factor receptor 1 (P11362 whole entry): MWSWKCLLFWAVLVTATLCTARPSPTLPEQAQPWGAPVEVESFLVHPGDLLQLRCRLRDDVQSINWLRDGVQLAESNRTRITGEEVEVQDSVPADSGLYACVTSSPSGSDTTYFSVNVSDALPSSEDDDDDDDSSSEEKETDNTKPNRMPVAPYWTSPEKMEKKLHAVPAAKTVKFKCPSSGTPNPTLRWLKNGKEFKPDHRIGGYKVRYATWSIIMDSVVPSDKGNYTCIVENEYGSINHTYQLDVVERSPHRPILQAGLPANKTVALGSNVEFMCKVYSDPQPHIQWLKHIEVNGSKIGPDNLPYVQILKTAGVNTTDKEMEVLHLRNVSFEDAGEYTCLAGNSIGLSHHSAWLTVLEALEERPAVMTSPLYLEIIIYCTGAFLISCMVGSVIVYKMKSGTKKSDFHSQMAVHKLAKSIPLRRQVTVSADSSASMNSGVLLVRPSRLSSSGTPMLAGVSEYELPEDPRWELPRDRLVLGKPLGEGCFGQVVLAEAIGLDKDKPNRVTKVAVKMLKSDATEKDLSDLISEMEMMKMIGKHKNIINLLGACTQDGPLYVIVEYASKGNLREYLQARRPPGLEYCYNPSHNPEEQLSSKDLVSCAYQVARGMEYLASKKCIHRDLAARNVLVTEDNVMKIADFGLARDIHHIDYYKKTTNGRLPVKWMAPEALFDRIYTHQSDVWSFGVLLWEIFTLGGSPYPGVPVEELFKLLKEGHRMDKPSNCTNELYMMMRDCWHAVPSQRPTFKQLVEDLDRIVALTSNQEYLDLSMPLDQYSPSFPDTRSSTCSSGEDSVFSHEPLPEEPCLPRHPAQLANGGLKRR
Chain of Vascular endothelial growth factor receptor 2 (P35968 whole entry): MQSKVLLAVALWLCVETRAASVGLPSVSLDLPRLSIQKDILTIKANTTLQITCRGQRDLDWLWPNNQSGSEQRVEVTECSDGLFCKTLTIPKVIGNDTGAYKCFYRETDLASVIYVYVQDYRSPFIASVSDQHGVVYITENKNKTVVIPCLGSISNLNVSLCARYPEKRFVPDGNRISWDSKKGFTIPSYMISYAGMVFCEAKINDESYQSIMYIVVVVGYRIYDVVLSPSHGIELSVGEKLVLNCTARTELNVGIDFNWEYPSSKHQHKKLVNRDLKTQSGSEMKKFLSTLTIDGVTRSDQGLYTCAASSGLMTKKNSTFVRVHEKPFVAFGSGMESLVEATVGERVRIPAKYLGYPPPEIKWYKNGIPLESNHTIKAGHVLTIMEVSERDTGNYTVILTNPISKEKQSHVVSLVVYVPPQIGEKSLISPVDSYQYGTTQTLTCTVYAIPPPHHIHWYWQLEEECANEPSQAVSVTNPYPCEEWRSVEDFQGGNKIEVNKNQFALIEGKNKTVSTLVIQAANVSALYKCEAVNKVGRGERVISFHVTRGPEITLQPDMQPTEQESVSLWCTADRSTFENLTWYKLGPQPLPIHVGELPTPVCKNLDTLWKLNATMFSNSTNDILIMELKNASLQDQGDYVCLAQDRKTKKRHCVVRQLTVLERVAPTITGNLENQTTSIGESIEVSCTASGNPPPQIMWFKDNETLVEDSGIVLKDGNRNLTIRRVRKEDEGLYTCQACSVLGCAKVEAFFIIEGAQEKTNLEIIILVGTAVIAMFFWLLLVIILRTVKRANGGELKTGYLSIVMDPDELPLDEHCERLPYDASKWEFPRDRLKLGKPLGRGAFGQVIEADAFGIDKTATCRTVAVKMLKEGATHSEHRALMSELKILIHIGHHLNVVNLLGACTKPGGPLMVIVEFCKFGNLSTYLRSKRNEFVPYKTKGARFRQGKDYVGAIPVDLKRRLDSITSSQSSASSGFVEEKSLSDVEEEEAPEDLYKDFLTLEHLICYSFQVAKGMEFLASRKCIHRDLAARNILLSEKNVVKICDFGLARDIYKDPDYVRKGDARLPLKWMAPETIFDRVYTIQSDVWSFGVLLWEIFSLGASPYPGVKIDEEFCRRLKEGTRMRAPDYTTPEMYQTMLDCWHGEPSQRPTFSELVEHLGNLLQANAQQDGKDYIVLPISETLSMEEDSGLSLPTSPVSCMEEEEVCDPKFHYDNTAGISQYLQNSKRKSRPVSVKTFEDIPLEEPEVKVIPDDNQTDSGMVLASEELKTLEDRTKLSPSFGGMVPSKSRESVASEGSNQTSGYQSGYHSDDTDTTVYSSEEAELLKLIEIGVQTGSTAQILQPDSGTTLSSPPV
Chain of Platelet-derived growth factor receptor beta (P09619 whole entry): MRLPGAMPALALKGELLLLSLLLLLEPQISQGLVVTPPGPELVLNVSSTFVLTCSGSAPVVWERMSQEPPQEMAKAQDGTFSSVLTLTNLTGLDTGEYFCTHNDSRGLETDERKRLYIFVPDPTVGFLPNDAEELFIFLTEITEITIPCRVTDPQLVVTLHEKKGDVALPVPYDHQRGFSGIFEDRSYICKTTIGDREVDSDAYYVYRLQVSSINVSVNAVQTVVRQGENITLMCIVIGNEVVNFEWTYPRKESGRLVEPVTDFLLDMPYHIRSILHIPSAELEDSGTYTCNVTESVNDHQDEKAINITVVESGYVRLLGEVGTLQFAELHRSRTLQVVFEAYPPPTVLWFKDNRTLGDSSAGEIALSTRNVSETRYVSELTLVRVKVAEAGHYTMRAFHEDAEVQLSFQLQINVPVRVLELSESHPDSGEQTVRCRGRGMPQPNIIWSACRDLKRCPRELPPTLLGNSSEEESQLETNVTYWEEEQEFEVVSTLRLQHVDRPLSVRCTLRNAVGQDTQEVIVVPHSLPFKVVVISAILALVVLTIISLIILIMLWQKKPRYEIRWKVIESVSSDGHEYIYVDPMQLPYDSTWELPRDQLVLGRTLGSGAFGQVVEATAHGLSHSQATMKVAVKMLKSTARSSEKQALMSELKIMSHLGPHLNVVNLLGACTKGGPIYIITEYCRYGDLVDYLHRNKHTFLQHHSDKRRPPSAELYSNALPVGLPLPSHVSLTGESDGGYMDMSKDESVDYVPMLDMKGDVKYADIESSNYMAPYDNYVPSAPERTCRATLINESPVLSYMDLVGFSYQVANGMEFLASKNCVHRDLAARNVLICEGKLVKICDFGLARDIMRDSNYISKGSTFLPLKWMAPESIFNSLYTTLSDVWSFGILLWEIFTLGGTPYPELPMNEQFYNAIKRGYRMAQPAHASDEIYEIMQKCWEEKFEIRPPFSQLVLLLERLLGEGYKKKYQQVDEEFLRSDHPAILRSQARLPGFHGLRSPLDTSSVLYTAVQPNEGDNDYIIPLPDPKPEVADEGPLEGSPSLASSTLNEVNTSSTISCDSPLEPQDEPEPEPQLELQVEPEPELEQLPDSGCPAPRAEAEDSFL

| Structure (SMILES) | IC50 [1] [nM] | IC50 [2] [nM] | IC50 [3] [nM] | EC50 [4] [nM] |
| --- | --- | --- | --- | --- |
| O=c1[nH]c2ccccc2cc1-c1nc2ccccc2[nH]1 | 390 | 1700 | 70 | 240 |
| Nc1c(-c2nc3cc(N4CCOCC4)ccc3[nH]2)c(=O)[nH]c2ccccc12 | 30 | 57 | 5 | 51 |
| CN1CCN(c2ccc3[nH]c(-c4c(N)c5ccccc5[nH]c4=O)nc3c2)CC1 | 9 | 42 | 2 | 19 |
| O=c1[nH]c2ccccc2c(O)c1-c1nc2ccccc2[nH]1 | 90 | 240 | 20 | 420 |
| Nc1c(-c2nc3ccccc3[nH]2)c(=O)[nH]c2ccccc12 | 30 | 58 | 10 | 78 |
| CNc1ccc2c(N)c(-c3nc4ccc(N5CCN(C)CC5)cc4[nH]3)c(=O)[nH]c2c1 | 370 | 1000 | 9 | 270 |
| CN1CCN(c2ccc3[nH]c(=O)c(-c4nc5ccccc5[nH]4)c(N)c3c2)CC1 | 4100 | 6500 | 130 | – |
| CN1CCN(c2ccc3[nH]c(-c4c(N)c5cc(N(C)C)ccc5[nH]c4=O)nc3c2)CC1 | 83 | 160 | 7 | 2000 |
| CN1CCN(c2ccc3[nH]c(-c4c(N)c5cc(NC(=O)c6ccccc6)ccc5[nH]c4=O)nc3c2)CC1 | 900 | 980 | 39 | – |
| CN1CCN(c2ccc3nc(-c4c(N)c5cc(NCc6ccccc6)ccc5[nH]c4=O)[nH]c3c2)CC1 | 8 | 21 | 0.6 | 1100 |
| CN1CCCC(Oc2cccc3[nH]c(=O)c(-c4nc5ccccc5[nH]4)c(N)c23)C1 (stereo unspecified) | 1 | 5 | 0.1 | 10 |
| CN1CCN(c2ccc3[nH]c(-c4c(N)c5c(Cl)cccc5[nH]c4=O)nc3c2)CC1 | 2 | 14 | 0.3 | 12 |
| Cc1cccc2[nH]c(=O)c(-c3nc4ccc(N5CCN(C)CC5)cc4[nH]3)c(N)c12 | 3 | 12 | 0.7 | 5 |
| CN1CCN(Cc2ccc3[nH]c(-c4c(N)c5ccccc5[nH]c4=O)nc3c2)CC1 | 9 | – | 2 | – |
| CN(C)CC(=O)N(C)c1ccc2[nH]c(-c3c(N)c4ccccc4[nH]c3=O)nc2c1 | 3 | 29 | 1 | 24 |
| CN(C)c1c(-c2nc3ccccc3[nH]2)c(=O)[nH]c2ccccc12 | 390 | 860 | 70 | > 10000 |
| CCC1CCN(C)C(Nc2c(-c3nc4ccccc4[nH]3)c(=O)[nH]c3ccccc23)C1 (stereo unspecified) | 190 | 170 | 0.2 | 72 |
| CN(C)[C@H]1CCN(c2ccc3[nH]c(-c4c(N)c5ccccc5[nH]c4=O)nc3c2)C1 | 20 | 60 | 4 | 42 |
| Cn1c(-c2c(O)c3ccccc3[nH]c2=O)nc2ccccc21 | 7900 | > 25000 | 1100 | > 10000 |
| Cn1c(-c2c(O)c3ccccc3n(C)c2=O)nc2ccccc21 | > 25000 | > 25000 | > 25000 | > 10000 |
